Like-named read-outs stand apart in the source and are kept apart here.
Columns and labels:
MMP-2 = target: T1, MMP-2 (Homo sapiens, UniProt P08253); test: MMP-2 inhibition assay (fluorogenic peptide substrate); format: biochemical; settings: for remaining activity (%): MMP-2; for IC50: n.d: not detected
T1 construct: purchased Sino Biological 10082-HNAH
T1 sequence (P08253 110-660): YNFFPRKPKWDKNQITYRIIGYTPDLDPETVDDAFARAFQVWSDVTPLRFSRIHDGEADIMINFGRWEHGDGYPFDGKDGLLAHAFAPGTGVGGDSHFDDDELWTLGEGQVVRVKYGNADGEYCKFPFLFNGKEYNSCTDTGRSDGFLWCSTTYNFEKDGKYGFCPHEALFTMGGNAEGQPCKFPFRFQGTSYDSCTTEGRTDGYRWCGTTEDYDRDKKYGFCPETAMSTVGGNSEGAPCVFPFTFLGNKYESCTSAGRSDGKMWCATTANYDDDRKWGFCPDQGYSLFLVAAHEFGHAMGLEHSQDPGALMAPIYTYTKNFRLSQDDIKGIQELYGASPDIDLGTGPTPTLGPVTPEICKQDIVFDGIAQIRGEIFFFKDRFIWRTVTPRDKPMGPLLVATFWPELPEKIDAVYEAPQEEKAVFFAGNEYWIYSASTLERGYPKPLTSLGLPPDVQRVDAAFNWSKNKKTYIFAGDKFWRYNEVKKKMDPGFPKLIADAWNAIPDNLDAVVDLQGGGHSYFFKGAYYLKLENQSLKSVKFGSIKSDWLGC
Protocol: (§1) The inhibition by the small molecule compounds against MMP-2/MMP-9 was measured using an assay probing the enzyme proteolytic activity on the substrate DNP-Pro-Leu-Gly-Met-Trp-Ser-Arg (Enzo Life Sciences, USA). All assays were performed in the assay buffer containing 50 mM Tris, 100 mM NaCl. 5 mM CaCl2, and 0.1% Brij 35, pH 7.5. Human proMMP-2 and proMMP-9 were purchased from Sino biological (Germany). The proMMPs were activated by 1 mM APMA in the assay buffer at 37 °C for 2 h. After activation, MMP-2 was diluted to 6.5 nM of final assay concentration, and MMP-9 was diluted by the buffer to reach 10 nM of final assay concentration. In each well, 49 μl of enzyme solution was incubated with 1 μl of compounds of series of concentration (nM-mM in DMSO) at RT for 30 min. 2 μl of the FRET substrate was added right before the measurement at a final concentration of 25 μM. The rate of hydrolysis was monitored by quantifying the emission at 360 nm (ex: 280 nm). The emission was measured with intervals of the 30 s for 30 min with Synergy H1 Plate Reader (Agilent, USA). The measurements were done in triplicate. […] Then, curves were plotted as a function of the concentration of the inhibitor against the relative enzyme activity. Vmax was derived from the detected […] signal for each concentration and logistic fitting was performed to obtain IC50 values using Origin 2019b (OriginLab).

MMP-9 = target: T2, MMP-9 (Homo sapiens, UniProt P14780); test: MMP-9 inhibition assay (fluorogenic peptide substrate); format: biochemical; parameters: remaining enzyme activity (% of control): scale not given here; settings: for remaining enzyme activity (% of control): MMP-9; for IC50: n.d: not detected
T2 construct: purchased Sino Biological 10327-HNAH
Protocol: as §1

[1] = mean ± SE, Fig. 5d unit inferred, µM, read-out: IC50
[2] = mean ± SE, Fig. 5e prints no unit, µM, read-out: IC50
[3] = Figure 5d, fragment combination joined by linker, read-out: MMP2 IC50
[4] = Figure 5d, fragment combination joined by linker, read-out: MMP9 IC50

T2 sequence (P14780 107-707 limits assumed): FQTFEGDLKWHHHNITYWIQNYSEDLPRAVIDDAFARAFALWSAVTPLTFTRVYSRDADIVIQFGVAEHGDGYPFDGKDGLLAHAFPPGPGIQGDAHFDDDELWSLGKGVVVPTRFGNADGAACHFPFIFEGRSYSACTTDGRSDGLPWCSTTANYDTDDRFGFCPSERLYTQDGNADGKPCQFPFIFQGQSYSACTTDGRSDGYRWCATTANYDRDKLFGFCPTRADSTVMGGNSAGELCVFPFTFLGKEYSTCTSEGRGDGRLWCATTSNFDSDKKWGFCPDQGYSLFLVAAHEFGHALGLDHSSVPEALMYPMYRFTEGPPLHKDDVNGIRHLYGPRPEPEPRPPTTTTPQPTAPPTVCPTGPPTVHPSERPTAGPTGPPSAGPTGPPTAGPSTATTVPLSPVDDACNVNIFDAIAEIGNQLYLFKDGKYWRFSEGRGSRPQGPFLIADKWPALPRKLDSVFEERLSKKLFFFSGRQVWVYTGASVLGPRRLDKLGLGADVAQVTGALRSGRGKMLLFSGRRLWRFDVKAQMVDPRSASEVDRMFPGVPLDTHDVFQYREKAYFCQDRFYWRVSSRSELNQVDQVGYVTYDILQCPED

SMILES | remaining activity (%) (MMP-2; concentration 1.95 µM) | IC50 (MMP-2; [1]) [µM] | remaining enzyme activity (% of control) (MMP-9; concentration 1.95 µM) | IC50 (MMP-9; [2]) [µM] | remaining activity (%) (MMP-2; concentration 0.12 µM) | remaining activity (%) (MMP-2; concentration 0.49 µM) | remaining activity (%) (MMP-2; concentration 7.81 µM) | remaining activity (%) (MMP-2; concentration 31.25 µM) | remaining activity (%) (MMP-2; concentration 125.00 µM) | remaining activity (%) (MMP-2; concentration 500.00 µM) | remaining enzyme activity (% of control) (MMP-9; concentration 0.12 µM) | remaining enzyme activity (% of control) (MMP-9; concentration 0.49 µM) | remaining enzyme activity (% of control) (MMP-9; concentration 7.81 µM) | remaining enzyme activity (% of control) (MMP-9; concentration 31.25 µM) | remaining enzyme activity (% of control) (MMP-9; concentration 125.00 µM) | remaining enzyme activity (% of control) (MMP-9; concentration 500.00 µM) | IC50 (MMP-2; [3]) [µM] | IC50 (MMP-9; [4]) [µM] | other results
Cc1cc(=O)[nH]c(-n2nc(C)c(CCC(=O)NCCSCC(=O)NCc3c[nH]nn3)c2C)n1 [693+787 Linker 24] | 81.72 | 149 ± 25.1 | 91.22 | 270 ± 31.4 |  |  |  |  |  |  |  |  |  |  |  |  |  |  | remaining activity (%) (MMP-2; concentration 0.0156 µM): 88.74; remaining activity (%) (MMP-2; concentration 0.08 µM): 98.28; remaining activity (%) (MMP-2; concentration 0.39 µM): 98.89; remaining activity (%) (MMP-2; concentration 9.75 µM): 92.63; remaining activity (%) (MMP-2; concentration 48.76 µM): 69.73; remaining activity (%) (MMP-2; concentration 243.80 µM): 36.49; remaining activity (%) (MMP-2; concentration 1219.00 µM): 2.36; remaining enzyme activity (% of control) (MMP-9; concentration 0.08 µM): 94.26; remaining enzyme activity (% of control) (MMP-9; concentration 0.39 µM): 97.78; remaining enzyme activity (% of control) (MMP-9; concentration 9.75 µM): 96.92; remaining enzyme activity (% of control) (MMP-9; concentration 48.76 µM): 92.11; remaining enzyme activity (% of control) (MMP-9; concentration 243.80 µM): 57.21; remaining enzyme activity (% of control) (MMP-9; concentration 1219.00 µM): 9.75
Cc1cc(=O)[nH]c(-n2nc(C)c(CCC(=O)NCCNC(=O)CC(=O)C=CCCCCNC(=O)c3cnc4c(c3)nc(O)n4C)c2C)n1 [693+826 Linker 12] | 90.36 | 210 ± 35.3 | 83.12 | 58.9 ± 10.5 | 103.13 | 90.37 | 93.51 | 77.90 | 65.75 | 29.31 | 100.00 | 80.27 | 88.09 | 65.00 | 27.22 | 12.87 |  |  | 
Cn1c(O)nc2cc(C(=O)NCCSCC(=O)NCC34CC5CC(CC(C5)C3)C4)cnc21 [66+826 Linker 24] | 101.91 |  | 102.00 |  | 102.86 | 110.62 | 112.01 | 94.11 | 93.82 | 94.00 | 103.98 | 100.00 | 100.00 | 108.11 | 104.50 | 89.34 |  |  | 
Cc1cc(=O)[nH]c(-n2nc(C)c(CCC(=O)NCCNC(=O)CC(=O)/C=C/CCCCNC(=O)c3cnc4c(c3)nc(O)n4C)c2C)n1 [693_826 12] |  |  |  |  |  |  |  |  |  |  |  |  |  |  |  |  | 210 | 58.9 | 
Cc1cc(=O)[nH]c(-n2nc(C)c(CCC(=O)NCCNC(=O)c3cnc4c(c3)nc(O)n4C)c2C)n1 [693+826 Linker 1] | 97.44 |  | 98.21 |  | 100.61 | 101.27 | 105.49 | 103.49 | 92.36 | 84.19 | 100.10 | 107.84 | 95.90 | 93.30 | 76.07 | 54.11 |  |  | 
O=C(C=CCCCCC(=O)NCc1c[nH]nn1)CC(=O)NCC12CC3CC(CC(C3)C1)C2 [66_787 12] |  |  |  |  |  |  |  |  |  |  |  |  |  |  |  |  | 339 | 115 | 

Reference: PMC10023787, “Trio-pharmacophore DNA-encoded chemical library for simultaneous selection of fragments and linkers” (Nature Communications, 2023)
